In EPA's ToxRefDB 2:

Legend:
dog [1] = conditions: Subchronic oral toxicity in nonrodent, beagle, Feed, dose end: 13 week, group: systemic, systemic / clinical chemistry / albumin-globulin ratio / albumin-globulin ratio + systemic / clinical chemistry / aspartate aminotransferase…
rat [2] = conditions: Prenatal developmental toxicity study, wistar, Oral, Gavage/Intubation, dose end: 16 GD
rat [3] = conditions: Subchronic oral toxicity in rodents, sprague dawley, Feed, dose end: 13 week, group: systemic, systemic / pathology gross / kidney / discolored + systemic / in life observation / body weight / body weight + systemic / in life …
mouse [4] = conditions: Subchronic oral toxicity in rodents, cd1, Feed, dose end: 13 week, group: systemic, systemic / pathology microscopic / liver / lipid deposition
rat [5] = conditions: Combined chronic toxicity/carcinogenicity, sprague dawley, Oral, Feed, dose end: 104 week, group: systemic
dog [6] = conditions: Chronic toxicity, beagle, Oral, Feed, dose end: 52 week, group: systemic
rat [7] = conditions: Multigenerational reproductive toxicity study, fischer, Oral, Feed, dose end: 1 generation
rat [8] = conditions: Combined chronic toxicity/carcinogenicity, fischer, Oral, Feed, dose end: 2 year, group: systemic
rat [9] = conditions: Chronic toxicity, fischer, Oral, Feed, dose end: 1 year, group: systemic
mouse [10] = conditions: Chronic toxicity; b6c3f1; Oral; Feed; dose end: 2 year; group: systemic; systemic / clinical chemistry / alkaline phosphatase (alp/alk) / alkaline phosphatase (alp/alk) + systemic / organ weight / liver / absolute…
dog [11] = conditions: Subchronic oral toxicity in nonrodent, beagle, Capsule, dose end: 90 day, group: systemic
dog [12] = conditions: Chronic toxicity, beagle, Oral, Capsule, dose end: 52 week, group: systemic
mouse [13] = conditions: Subchronic oral toxicity in rodents, B6C3F1, Feed, dose end: 3 month, group: systemic
rat [14] = conditions: Prenatal developmental toxicity study; wistar; Oral; Feed; dose end: 15 GD; group: maternal; systemic / in life observation / body weight / body weight gain + systemic / in life observation / food consumption / food consumption
dog [15] = conditions: Chronic toxicity; beagle; Oral; Feed; dose end: 52 week; group: systemic; systemic / organ weight / liver / relative to body weight + systemic / hematology / platelet / platelet + systemic / organ weight / kidney…
mouse [16] = conditions: Carcinogenicity, Charles River, Oral, Feed, dose end: 104 week, group: systemic
rat [17] = conditions: Prenatal developmental toxicity study, sprague dawley, Oral, Gavage/Intubation, dose end: 15 GD
[18] = group: developmental, developmental / developmental malformation / kidney / dilated renal pelvis + developmental / developmental malformation / ureter / distended
[19] = group: maternal, systemic / in life observation / clinical signs / salivation
[20] = systemic / in life observation / body weight / body weight + systemic / in life observation / body weight / body weight gain
[21] = systemic / in life observation / body weight / body weight + systemic / in life observation / body weight / body weight gain + systemic / in…
[22] = systemic / hematology / [other] / [other] + systemic / hematology / erythroblast / erythroblast + systemic / hematology / monocytes / …
[23] = systemic / hematology / erythroblast / erythroblast
[24] = group: offspring, systemic / in life observation / clinical signs / urogenital staining + systemic / urinalysis / appearance and color / appearance and color
[25] = group: parental, systemic / organ weight / liver / absolute + systemic / organ weight / liver / relative to body weight + systemic / in life observation / …
[26] = systemic / in life observation / clinical signs / urine, discoloration + systemic / clinical chemistry / glucose / glucose
[27] = systemic / pathology microscopic / mammary gland / fibroadenoma + systemic / clinical chemistry / urea nitrogen / urea nitrogen + systemic…
[28] = systemic / organ weight / adrenal gland / absolute + systemic / organ weight / adrenal gland / relative to body weight + systemic / organ …
[29] = systemic / hematology / [other] / [other] + systemic / hematology / jolly bodies / jolly bodies + systemic / hematology / macrocytosis / …
[30] = systemic / hematology / polychromasia / polychromasia + systemic / hematology / lymphocyte / lymphocyte + systemic / in life observation / …
[31] = systemic / in life observation / body weight / body weight gain + systemic / pathology microscopic / lung / carcinoma + systemic / in life …
[32] = group: developmental, developmental / developmental malformation / kidney / small renal papilla
[33] = group: developmental, developmental / developmental malformation / kidney / small renal papilla + developmental / developmental malformation / spinal cord / …
[34] = group: maternal, systemic / in life observation / food consumption / food consumption + systemic / pathology gross / spleen / discolored
[35] = group: maternal, systemic / in life observation / food consumption / food consumption + systemic / pathology gross / spleen / discolored + reproductive / …

## COC(=O)c1ccc(I)cc1S(=O)(=O)[N-]C(=O)Nc1nc(C)nc(OC)n1.[Na+] [Iodosulfuron-methyl-sodium]
Dog [1]
  LEL: 49 mg/kg/day
  LOAEL: 49 mg/kg/day
  NEL: 8.1 mg/kg/day
  NOAEL: 8.1 mg/kg/day
Rat [2]; [18]
  LEL: 100 mg/kg/day
  LOAEL: 100 mg/kg/day
  NEL: < 100 mg/kg/day
  NOAEL: < 100 mg/kg/day
Rat [2]; [19]
  LEL: 1000 mg/kg/day
  LOAEL: 1000 mg/kg/day
  NEL: 315 mg/kg/day
  NOAEL: 315 mg/kg/day
Rat [3]
  LEL: 347 mg/kg/day
  LOAEL: 347 mg/kg/day
Mouse [4]
  LEL: 139 mg/kg/day
  LOAEL: 139 mg/kg/day
  NEL: < 139 mg/kg/day
  NOAEL: < 139 mg/kg/day
Rat [5]; [20]
  LOAEL: 331 mg/kg/day
Rat [5]; [21]
  LEL: 29.7 mg/kg/day
  NEL: 2.96 mg/kg/day
  NOAEL: 29.7 mg/kg/day
Dog [6]; [22]
  LOAEL: 43.7 mg/kg/day
  NOAEL: 7.25 mg/kg/day
Dog [6]; [23]
  LEL: 41.8 mg/kg/day
  NEL: 7.37 mg/kg/day

## C=C(C)CN(CC)c1c([N+](=O)[O-])cc(C(F)(F)F)cc1[N+](=O)[O-] [Ethalfluralin]
Rat [7]; [24]
  LEL: 20 mg/kg/day
  LOAEL: > 61 mg/kg/day
  NEL: 8 mg/kg/day
  NOAEL: ≥ 61 mg/kg/day
Rat [7]; group: parental, systemic / organ weight / liver / absolute + systemic / organ weight / liver / relative to body weight
  LOAEL: 61 mg/kg/day
Rat [7]; [25]
  NEL: 8 mg/kg/day
  NOAEL: 20 mg/kg/day
Rat [7]; group: parental, systemic / organ weight / liver / relative to body weight + systemic / in life observation / clinical signs / urogenital staining + systemic…
  LEL: 20 mg/kg/day
Rat [8]; [26]
  LEL: 5 mg/kg/day
  NEL: < 5 mg/kg/day
Rat [8]; [27]
  LOAEL: > 37.5 mg/kg/day
  NOAEL: ≥ 37.5 mg/kg/day
Rat [9]; systemic / in life observation / body weight / body weight gain + systemic / organ weight / liver / relative to body weight
  LOAEL: 37.5 mg/kg/day
Rat [9]; systemic / in life observation / body weight / body weight gain + systemic / organ weight / liver / relative to body weight + systemic / …
  NOAEL: 12.5 mg/kg/day
Rat [9]; [28]
  LEL: 5 mg/kg/day
  NEL: < 5 mg/kg/day
Mouse [10]
  LEL: 47 mg/kg/day
  LOAEL: 47 mg/kg/day
  NEL: 11.6 mg/kg/day
  NOAEL: 11.6 mg/kg/day
Dog [11]; systemic / in life observation / clinical signs / anorexia + systemic / in life observation / clinical signs / vomitting
  LOAEL: 125 mg/kg/day
Dog [11]; systemic / in life observation / clinical signs / anorexia + systemic / in life observation / clinical signs / vomitting + systemic / in …
  LEL: 125 mg/kg/day
Dog [12]; [29]
  LOAEL: 20 mg/kg/day
  NOAEL: 4 mg/kg/day
Dog [12]; [30]
  LEL: 4 mg/kg/day
  NEL: < 4 mg/kg/day
Mouse [13]; systemic / clinical chemistry / bilirubin / total bilirubin + systemic / organ weight / kidney / absolute
  LEL: 136 mg/kg/day
Mouse [13]; systemic / in life observation / body weight / body weight + systemic / clinical chemistry / alanine aminotransferase (alt/sgpt) / alanine …
  NOAEL: 285 mg/kg/day
Mouse [13]; [20]
  LOAEL: 538 mg/kg/day
Mouse [13]; systemic / in life observation / body weight / body weight gain + systemic / clinical chemistry / bilirubin / total bilirubin + systemic / …
  NEL: 68 mg/kg/day

## CC(C)(C)c1ccc(O)cc1 [4-tert-Butylphenol]
Rat [14]
  LEL: 3590 mg/kg/day
  LOAEL: 3590 mg/kg/day

## CN(C)C(=O)Nc1cccc(C(F)(F)F)c1 [Fluometuron]
Dog [15]
  NEL: 237 mg/kg/day
  NOAEL: 237 mg/kg/day
Mouse [16]; systemic / in life observation / body weight / body weight gain
  LOAEL: 260 mg/kg/day
Mouse [16]; [31]
  NEL: 1.2 mg/kg/day
  NOAEL: 61.5 mg/kg/day
Mouse [16]; systemic / pathology microscopic / lung / carcinoma + systemic / in life observation / clinical signs / [other]
  LEL: 61.5 mg/kg/day
Rat [17]; [32]
  LEL: 100 mg/kg/day
  LOAEL: 100 mg/kg/day
Rat [17]; [33]
  NEL: 10 mg/kg/day
  NOAEL: 10 mg/kg/day
Rat [17]; [34]
  LEL: 100 mg/kg/day
  LOAEL: 100 mg/kg/day
Rat [17]; [35]
  NEL: 10 mg/kg/day
  NOAEL: 10 mg/kg/day
